Laboratory results published in ChEMBL document CHEMBL1641538, “Synthesis of a novel human PPARδ selective agonist and its stimulatory effect on oligodendrocyte differentiation” (Bioorg Med Chem Lett, 2011).
Calls of active or inactive are those of the source. The rule behind the calls is not given here.

Tests used:
[1] = target: T1, Peroxisome proliferator-activated receptor delta (Homo sapiens, UniProt Q03181); assay: Transactivation of Gal4-fused human PPARdelta DNA binding domain expressed in african green monkey CV1 cells by luciferase reporter gene assay; type: cell-based, CV-1
T1 sequence (Q03181 whole entry): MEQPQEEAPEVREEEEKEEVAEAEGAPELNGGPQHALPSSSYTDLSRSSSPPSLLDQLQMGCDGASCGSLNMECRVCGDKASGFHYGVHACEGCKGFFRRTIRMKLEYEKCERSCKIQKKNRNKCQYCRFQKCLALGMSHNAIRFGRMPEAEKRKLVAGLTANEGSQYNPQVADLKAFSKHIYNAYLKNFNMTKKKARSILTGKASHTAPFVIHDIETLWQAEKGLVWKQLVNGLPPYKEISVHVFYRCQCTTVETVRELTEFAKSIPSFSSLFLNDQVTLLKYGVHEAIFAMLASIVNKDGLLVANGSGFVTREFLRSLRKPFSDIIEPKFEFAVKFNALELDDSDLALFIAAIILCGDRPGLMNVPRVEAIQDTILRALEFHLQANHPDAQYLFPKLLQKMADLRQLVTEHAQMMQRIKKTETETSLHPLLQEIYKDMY

[2] = target: T2, Peroxisome proliferator-activated receptor gamma (Homo sapiens, UniProt P37231); type: cell-based, CV-1
T2 sequence (P37231 whole entry): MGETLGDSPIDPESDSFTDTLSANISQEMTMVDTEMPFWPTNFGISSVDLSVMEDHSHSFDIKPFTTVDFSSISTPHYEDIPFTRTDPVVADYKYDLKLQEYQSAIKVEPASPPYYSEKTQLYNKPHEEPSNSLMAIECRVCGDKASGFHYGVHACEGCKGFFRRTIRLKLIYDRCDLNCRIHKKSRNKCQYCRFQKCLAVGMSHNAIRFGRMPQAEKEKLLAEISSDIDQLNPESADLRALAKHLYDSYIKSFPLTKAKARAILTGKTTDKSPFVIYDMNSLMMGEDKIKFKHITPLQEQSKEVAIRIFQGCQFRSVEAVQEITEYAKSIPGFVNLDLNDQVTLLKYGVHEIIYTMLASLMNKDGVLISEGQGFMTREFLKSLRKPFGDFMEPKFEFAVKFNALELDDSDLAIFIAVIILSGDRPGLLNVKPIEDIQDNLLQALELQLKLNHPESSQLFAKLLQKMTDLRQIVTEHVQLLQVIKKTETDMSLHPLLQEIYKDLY

Homo sapiens = species on record: Homo sapiens; assay: Selectivity ratio of EC50 for full length human PPARalpha to EC50 for full length human PPARdelta
Rattus norvegicus = species on record: Rattus norvegicus; assay: Induction of Wistar rat oligodendrocyte differentiation at 0.1 uM after 3 days by O1 antibody staining; type: functional
[3] = target: T1, Peroxisome proliferator-activated receptor delta; assay: Transactivation of full length human PPARdelta expressed in african green monkey CV1 cells by luciferase reporter gene assay; type: cell-based, CV-1
[4] = target: PPAR delta/gamma (Homo sapiens) (UniProt P37231+Q03181); assay: Selectivity ratio of EC50 for full length human PPARgamma to EC50 for full length human PPARdelta
[5] = target: T3, Peroxisome proliferator-activated receptor alpha (Homo sapiens, UniProt Q07869); assay: Transactivation of full length human PPARalpha expressed in african green monkey CV1 cells by luciferase reporter gene assay; type: cell-based, CV-1
T3 sequence (Q07869 whole entry): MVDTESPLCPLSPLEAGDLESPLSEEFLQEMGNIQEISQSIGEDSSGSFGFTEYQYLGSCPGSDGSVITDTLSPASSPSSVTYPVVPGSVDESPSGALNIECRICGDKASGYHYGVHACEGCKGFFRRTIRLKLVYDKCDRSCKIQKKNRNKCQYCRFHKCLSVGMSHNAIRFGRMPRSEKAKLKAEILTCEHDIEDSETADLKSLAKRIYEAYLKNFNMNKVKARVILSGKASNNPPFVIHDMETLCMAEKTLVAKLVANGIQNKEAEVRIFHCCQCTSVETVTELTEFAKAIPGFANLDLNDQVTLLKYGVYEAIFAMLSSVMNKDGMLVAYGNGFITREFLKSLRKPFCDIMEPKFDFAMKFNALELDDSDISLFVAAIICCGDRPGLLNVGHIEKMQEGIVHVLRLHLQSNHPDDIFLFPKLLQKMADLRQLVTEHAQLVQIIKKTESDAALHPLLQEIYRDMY

[6] = target: T2, Peroxisome proliferator-activated receptor gamma; assay: Transactivation of full length human PPARgamma expressed in african green monkey CV1 cells by luciferase reporter gene assay; type: cell-based, CV-1
[7] = target: T3, Peroxisome proliferator-activated receptor alpha; assay: Transactivation of Gal4-fused human PPARalpha DNA binding domain expressed in african green monkey CV1 cells by luciferase reporter gene assay; type: cell-based, CV-1

| EC50 [1] [µM] | Compound | EC50 [2] [µM] | Ratio EC50 (Homo sapiens) | Activity (Rattus norvegicus) | EC50 [3] [µM] | Ratio EC50 [4] | EC50 [5] [µM] | EC50 [6] [µM] | EC50 [7] [µM] |
| --- | --- | --- | --- | --- | --- | --- | --- | --- | --- |
| 2.6 | Cc1nc(-c2ccc(C(F)(F)F)cc2)sc1C(=O)NCc1ccc(OC(C)(C)C(=O)O)cc1 [GW590735] | > 10 |  |  |  |  |  |  |  |
|  | Cc1cc2c(CCc3nc(-c4ccc(Cl)cc4Cl)oc3C(C)C)noc2cc1OCC(=O)O | > 10 | 2000 | Active | 0.0045 | 2000 | > 10 | > 10 | > 10 |
